Active and inactive are the calls of the source.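 Rule for the calls: active = compounds whose mean IC50 is below 20 µM; inactive = the rest.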
Biological target: Apelin receptor (Homo sapiens) (UniProt P35414)
Assay: APJ receptor antagonists, beta-arrestin recruitment, SAR follow-up, cell-based, CHO-K1 AGTRL-1, PathHunter luminescence, set 6 (AID 504455)
Details: apelin-13 antagonism

Sequence of Apelin receptor (Homo sapiens) (P35414 whole entry, looked up): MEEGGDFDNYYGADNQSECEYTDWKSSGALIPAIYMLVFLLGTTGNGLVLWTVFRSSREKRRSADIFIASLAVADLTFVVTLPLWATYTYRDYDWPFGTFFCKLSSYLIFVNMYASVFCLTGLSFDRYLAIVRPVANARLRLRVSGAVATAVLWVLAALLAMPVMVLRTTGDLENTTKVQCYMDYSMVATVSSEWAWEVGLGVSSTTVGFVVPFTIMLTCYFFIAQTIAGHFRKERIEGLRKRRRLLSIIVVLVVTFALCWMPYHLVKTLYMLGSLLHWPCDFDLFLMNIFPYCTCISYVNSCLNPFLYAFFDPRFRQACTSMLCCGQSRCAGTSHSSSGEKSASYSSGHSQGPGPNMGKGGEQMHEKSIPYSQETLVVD

Cc1ccnc(SCc2cc(=O)c(OC(=O)c3ccc(C#N)cc3)co2)n1
IC50: 11.5 µM

N#Cc1ccc(C(=O)Oc2coc(CSc3ncccn3)cc2=O)cc1
IC50: 9.77 µM

Cc1ccnc(SCc2cc(=O)c(OC(=O)c3ccc([N+](=O)[O-])cc3)co2)n1
IC50: 3.11 µM

Cc1ccc(C(=O)Oc2coc(CSc3ncccn3)cc2=O)cc1[N+](=O)[O-]
IC50: 10.9 µM

Cc1ccnc(SCc2cc(=O)c(OC(=O)c3ccccc3)co2)n1
IC50: > 79 µM (inactive)

— PubChem BioAssay AID504455 (Sanford-Burnham Center for Chemical Genomics, 2011)
